SMILES strings stand for the structures.

A word on the Ki: it is a dissociation constant, usually derived from enzyme kinetics or from competition with a known ligand.

This experiment addresses T1, human 5-HT1A-serotonergic receptor (Homo sapiens, UniProt P08908).
T1 construct: expressed in transfected cells; host or cells: HeLa (human), stably transfected; membrane preparation
T1 sequence (P08908 1-422): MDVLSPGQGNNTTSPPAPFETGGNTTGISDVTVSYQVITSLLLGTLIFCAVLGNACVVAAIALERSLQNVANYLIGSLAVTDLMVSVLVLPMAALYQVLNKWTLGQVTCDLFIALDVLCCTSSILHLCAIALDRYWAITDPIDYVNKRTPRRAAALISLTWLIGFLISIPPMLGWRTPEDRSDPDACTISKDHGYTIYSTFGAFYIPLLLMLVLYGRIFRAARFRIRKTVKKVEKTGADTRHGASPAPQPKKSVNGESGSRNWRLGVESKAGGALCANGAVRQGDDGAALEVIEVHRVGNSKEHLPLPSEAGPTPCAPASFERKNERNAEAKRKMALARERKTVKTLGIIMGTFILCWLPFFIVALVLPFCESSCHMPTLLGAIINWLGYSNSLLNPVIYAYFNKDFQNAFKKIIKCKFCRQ
Put plainly: Radioligand binding to recombinant 5-HT1A receptors ([3H]8-OH-DPAT, HeLa cell membranes). As to conditions: 1 nM [3H]8-OH-DPAT; Ki from IC50 by Cheng & Prusoff; read-out: Ki, binding affinity for 5-HT1A receptors. The method, then: Genomic clone coding for the human 5-HT1A-serotonergic receptor was stably transfected in a human cell line (HeLa). HeLa cells were grown as monolayers in Dulbecco's modified Eagle medium (DMEM), containing 10% foetal bovine serum, gentamycin (0.1 mg/ml) and 5% carbon dioxide, at 37° C. The cells were detached from the growth flask at 95% confluence by a cell scraper and were lysed in cold 5 mM Tris and 5 mM EDTA buffer (pH 7.4). The homogenates were centrifuged at 40000×g×20 minutes and the pellets were resuspended in a small volume of cold 5 mM Tris and 5 mM EDTA buffer (pH 7.4) and immediately frozen and stored at −70° C. until use. On the day of experiment, the cell membranes were resuspended in incubation buffer: 50 mM Tris HCl (pH 7.4), 2.5 mM MgCl2, […] (Fargin et al., Nature 335, 358-360, 1988). The membranes were incubated in a final volume of 1 ml for 30 minutes at 30° C. with 1 nM [^3H]8-OH-DPAT, in the absence or presence of the test compounds. Non-specific binding was determined in the presence of 10 μM 5-HT. Incubation was stopped by addition of cold Tris-HC1 buffer and rapid filtration through a 0.2%-polyethyleneimine-pretreated Whatman-GF/B or Schleicher-&-Schuell-GF52 filter.
The affinities of the tested compounds were evaluated as inhibition of specific binding of the radioligand to 5-HT1A receptors (IC50) by using the non-linear curve-fitting program Allfit (De Lean et al., Am. J. Physiol. 235, E97-E102 (1978). The IC50 value was converted to an affinity constant (Ki) by the equation of Cheng & Prusoff (Cheng Y. C., Prusoff W. H., Biochem. Pharmacol. 22, 3099-3108 (1973)).
As to `N#Cc1ccccc1C(CCN1CCN(c2cccc3c2OCCO3)CC1)C(=O)C1CCCCC1` (centres unmarked) [Example 13, 1-[3-(2-Cyanophenyl)-4-cyclohexyl-4-oxobutyl]-4-[5-(2,3-dihydro-1,4-benzodioxinyl)]piperazine], the Ki turned out to be 0.53 nM. The result for `COC(C)C(CCN1CCN(c2cccc3c2OCCO3)CC1)c1ccccc1` (centres unmarked) [Example 11, 1-[5-(2,3-Dihydro-1,4-benzodioxinyl)]-4-[(4-methoxy-3-phenyl)pentyl]piperazine] reads 3.65 nM; that for `CC(C)=CC(O)C(CCN1CCN(c2cccc3c2OCCO3)CC1)c1ccccc1` (centres unmarked) [Example 35, 1-[5-(2,3-Dihydro-1,4-benzodioxinyl)]-4-(4-hydroxy-6-methyl-3-phenylhept-5-enyl)piperazine], 1.47 nM. The result for `CCC(O)C(CCN1CCN(c2cccc3c2OCCO3)CC1)c1ccccc1OC(F)(F)F` (centres unmarked) [Example 6, 1-[5-(2,3-Dihydro-1,4-benzodioxinyl)]-4-[4-hydroxy-3-(2-trifluoromethoxyphenyl)hexyl]piperazine] reads 3.66 nM. Consider `N#Cc1ccccc1[C@@H](CCN1CCN(c2cccc3c2OCCO3)CC1)[C@@H](O)C1CCCCC1` (racemic) [Example 14, (RS,SR)-1-[3-(2-Cyanophenyl)-4-cyclohexyl-4-hydroxybutyl]-4-[5-(2,3-dihydro-1,4-benzodioxinyl)]piperazine], for which the inhibitory constant (Ki) is 0.401 nM. The result for `CC=CC(O)C(CCN1CCN(c2cccc3c2OCCO3)CC1)c1ccccc1` (centres unmarked) [Example 32, 1-[5-(2,3-Dihydro-1,4-benzodioxinyl)]-4-(4-hydroxy-3-phenylhept-5-enyl)piperazine] reads 3.57 nM; that for `N#Cc1ccccc1C(CCN1CCN(c2cccc3c2OCCO3)CC1)C(O)C1CCCCC1` (racemic) [Example 14a, (RS)-1-[3-(2-Cyanophenyl)-4-cyclohexyl-4-hydroxybutyl]-4-[5-(2,3-dihydro-1,4-benzodioxinyl)]piperazine], 0.878 nM.

For `COC(C1CCCCC1)C(CCN1CCN(c2ccccc2OCC(F)(F)F)CC1)c1ccccc1F` (centres unmarked) [Example 1, 1-[4-Cyclohexyl-3-(2-fluorophenyl)-4-methoxybutyl]-4-[2-(2,2,2-trifluoroethoxy)phenyl]piperazine], the Ki was 1.45 nM.

Consider `CCCC(O)C(CCN1CCN(c2cccc3c2OCCO3)CC1)c1ccccc1` (centres unmarked) [Example 27], for which the Ki is 1.09 nM. The result for `CCC(O)C(CCN1CCN(c2cccc3c2OCCO3)CC1)c1ccccc1` (centres unmarked) [Example 26, 1-[5-(2,3-Dihydro-1,4-benzodioxinyl)]-4-(4-hydroxy-3-phenyl)hexylpiperazine] reads 2.62 nM.

In the case of `C=CC(OC)C(CCN1CCN(c2cccc3c2OCCO3)CC1)c1ccccc1OC(F)(F)F` (centres unmarked) [Example 9, 1-[5-(2,3-Dihydro-1,4-benzodioxinyl)]-4-[4-methoxy-3-(2-trifluoromethoxyphenyl)-5-hexenyl]piperazine], the Ki was 1.9 nM. The result for `CN(C)C(=O)c1ccccc1C(CCN1CCN(c2cccc3c2OCCO3)CC1)C(=O)C1CCCCC1` (centres unmarked) [Example 39, 1-[4-Cyclohexyl-3-(2-dimethylaminocarbonylphenyl)-4-oxobutyl]-4-[5-(2,3-dihydro-1,4-benzodioxinyl)]piperazine] reads 2.92 nM; that for `CC(O)C(CCN1CCN(c2cccc3c2OCCO3)CC1)c1ccccc1` (centres unmarked) [Example 30], 5.43 nM. The result for `COC(=O)O[C@@H](C1CCCCC1)[C@H](CCN1CCN(c2ccccc2OC)CC1)c1ccccc1F` (racemic) [Example 46, (RS,SR) 1-[4-Cyclohexyl-3-(2-fluorophenyl)-4-methoxycarbonyloxybutyl]-4-(2-methoxyphenyl)piperazine] reads 0.72 nM; that for `CCOC(C1CCCCC1)C(CCN1CCN(c2cccc3c2OCCO3)CC1)c1ccccc1` (centres unmarked) [Example 19, 1-(4-Cyclohexyl-4-ethoxy-3-phenylbutyl)-4-[5-(2,3-dihydro-1,4-benzodioxinyl)]piperazine], 0.69 nM; that for `C=CCOC(C1CCCCC1)C(CCN1CCN(c2cccc3c2OCCO3)CC1)c1ccccc1` (centres unmarked) [Example 21, 1-(4-Allyloxy-4-cyclohexyl-3-phenylbutyl)-4-[5-(2,3-dihydro-1,4-benzodioxinyl)]piperazine], 0.77 nM. For `CN(C)C(=O)c1ccccc1C(CCN1CCN(c2cccc3c2OCCO3)CC1)C(O)C1CCCCC1` (centres unmarked) [Example 40, 1-[4-Cyclohexyl-3-(2-dimethylaminocarbonylphenyl)-4-hydroxybutyl]-4-[5-(2,3-dihydro-1,4-benzodioxinyl)]piperazine] the value was 1.84 nM; for `N#Cc1ccccc1C(CCN1CCN(c2cccc3c2OCCO3)CC1)C(O)C1CCCCC1` (racemic) [Example 14b, (SR)-1-[3-(2-Cyanophenyl)-4-cyclohexyl-4-hydroxybutyl]-4-[5-(2,3-dihydro-1,4-benzodioxinyl)]piperazine], 0.965 nM. Regarding `COC(C1CCCCC1)C(CCN1CCN(c2cccc3c2OCCO3)CC1)c1ccccc1` (centres unmarked) [Example 17, 1-(4-cyclohexyl-4-methoxy-3-phenylbutyl)-4-[5-(2,3-dihydro-1,4-benzodioxinyl)]piperazine], the Ki was 0.64 nM. On to `C#CCOC(C1CCCCC1)C(CCN1CCN(c2cccc3c2OCCO3)CC1)c1ccccc1` (centres unmarked) [Example 23, 1-(4-Cyclohexyl-3-phenyl-4-propargyloxybutyl)-4-[5-(2,3-dihydro-1,4-benzodioxinyl)]piperazine], for which the Ki was found to be 0.63 nM. For `C=CC(O)C(CCN1CCN(c2cccc3c2OCCO3)CC1)c1ccccc1OC(F)(F)F` (centres unmarked) [Example 7, 1-[5-(2,3-Dihydro-1,4-benzodioxinyl)]-4-[4-hydroxy-3-(2-trifluoromethoxyphenyl)hex-5-enyl]piperazine] the value was 7.27 nM; for `CC(O)C(CCN1CCN(c2cccc3c2OCCO3)CC1)c1ccccc1OC(F)(F)F` (centres unmarked) [Example 5, 1-[5-(2,3-Dihydro-1,4-benzodioxinyl)]-4-[4-hydroxy-3-(2-trifluoromethoxyphenyl)pentyl]piperazine], 8.31 nM; for `C#CCOC(C1CCCCC1)C(CCN1CCN(c2ccc(F)cc2OC)CC1)c1ccccc1` (centres unmarked) [Example 24, 1-(4-Cyclohexyl-3-phenyl-4-propargyloxybutyl)-4-(4-fluoro-2-methoxyphenyl)piperazine], 0.64 nM.

As to `C#CC(O)C(CCN1CCN(c2cccc3c2OCCO3)CC1)c1ccccc1` (centres unmarked) [Example 33, 1-[5-(2,3-Dihydro-1,4-benzodioxinyl)]-4-(4-hydroxy-3-phenylhex-5-ynyl)piperazine], the Ki amounted to 5.03 nM. For `CC(C)CC(O)C(CCN1CCN(c2cccc3c2OCCO3)CC1)c1ccccc1` (centres unmarked) [Example 36] the value was 0.56 nM; for `COc1cc(F)ccc1N1CCN(CCC(C(=O)C2CCCCC2)c2ccccc2C#N)CC1` (centres unmarked) [Example 15, 1-[3-(2-Cyanophenyl)-4-cyclohexyl-4-oxobutyl]-4-(4-fluoro-2-methoxyphenyl)piperazine], 1.69 nM; for `C=CC(O)C(CCN1CCN(c2cccc3c2OCCO3)CC1)c1ccccc1` (centres unmarked) [Example 28, 1-[5-(2,3-Dihydro-1,4-benzodioxinyl)]-4-(4-hydroxy-3-phenylhex-5-enyl]piperazine], 2.92 nM. `C=CCC(O)C(CCN1CCN(c2cccc3c2OCCO3)CC1)c1ccccc1` (centres unmarked) [Example 34, 1-[5-(2,3-Dihydro-1,4-benzodioxinyl)]-4-(4-hydroxy-3-phenylhept-6-enyl)piperazine]: the Ki amounted to 1.67 nM. For `CCCC(OC)C(CCN1CCN(c2cccc3c2OCCO3)CC1)c1ccccc1` (centres unmarked) [Example 10, 1-[5-(2,3-Dihydro-1,4-benzodioxinyl)]-4-[(4-methoxy-3-phenyl)heptyl]piperazine] the value was 1.68 nM. On to `CC(C)C(O)C(CCN1CCN(c2cccc3c2OCCO3)CC1)c1ccccc1` (centres unmarked) [Example 29], for which the Ki was 1.08 nM. For `O=C(C1CCCCC1)C(CCN1CCN(c2cccc3[nH]ccc23)CC1)c1ccccc1OC(F)(F)F` (centres unmarked) [Example 44, 1-[4-Cyclohexyl-3-(2-trifluoromethoxyphenyl)-4-oxobutyl]-4-(4-indolyl)piperazine], the Ki is 1.14 nM. The result for `C=CCOC(C1CCCCC1)C(CCN1CCN(c2ccc(F)cc2OC)CC1)c1ccccc1` (centres unmarked) [Example 22, 1-(4-Allyloxy-4-cyclohexyl-3-phenylbutyl)-4-(4-fluoro-2-methoxyphenyl)piperazine] reads 2.03 nM.

The values are drawn from patent US20040072839A1, “1-Phenylalkylpiperazines” (priority 2002, published 2004).
